Measured values as given in patent US9278914B2, “SARMs and method of use thereof” (UNIVERSITY OF TENNESSEE RESEARCH FOUNDATION, priority 2004, dated 2016).

Experiments:
[1] = test system: intact male Sprague-Dawley rats; test: Anabolic and androgenic activity in intact male rats, daily oral gavage; type: in vivo, rat
Procedure: (§1) The test article for this study was weighed and dissolved in 10% DMSO (Fisher) diluted with PEG 300 (Acros Organics, N.J.) for preparation of the appropriate dosage concentrations. The animals were housed in groups of 2 to 3 animals per cage. Animals were randomly assigned to one of seven groups consisting of 4 to 5 animals per group. Control groups (intact and ORX) were administered vehicle daily. […] Where appropriate, animals were castrated on day one of the study. Treatment with compound of formula S-II began nine days post ORX and was administered daily via oral gavage for fourteen days.
(§2) The animals were sacrificed under anesthesia (ketamine/xyalzine, 87:13 mg/kg) and body weights were recorded. In addition, ventral prostate, seminal vesicles, and levator ani muscle were removed, individually weighed, normalized to body weight, and expressed as a percentage of intact control. Student's T-test was used to compare individual dose groups to the intact control group. Significance was defined a priori as a P-value<0.05. Ventral prostate and seminal vesicle weights were evaluated as a measure of androgenic activity, whereas levator ani muscle weight was evaluated as a measure of anabolic activity. Blood was collected from the abdominal aorta, centrifuged, and sera were frozen at −80° C. prior to determination of serum hormone levels. Serum luteinizing hormone (LH) and follicle stimulating hormone (FSH) concentrations were determined.
(§3) The test article for this study was weighed and dissolved in 10% DMSO (Fisher) diluted with PEG 300 (Acros Organics, N.J.) for preparation of the appropriate dosage concentrations. The animals were housed in groups of 2 to 3 animals per cage. Animals were randomly assigned to one of seven groups consisting of 4 to 5 animals per group. Control groups (intact and ORX) were administered vehicle daily. Compound of formula S-XXIII was administered via oral gavage at doses of 0.01, 0.03, 0.1, 0.3, 0.75, and 1 mg/day to both intact and ORX groups. Where appropriate, animals were castrated on day one of the study. Treatment with compound of formula S-XXIII began nine days post ORX and was administered daily via oral gavage for fourteen days.
as §3, with “S-XXIV” for “S-XXIII”, “study.” for “study. Treatment with compound of formula S-XXIII began nine days post ORX and was administered daily via oral gavage for fourteen days.”

[2] = test system: castrated (ORX) male Sprague-Dawley rats; test: Anabolic and androgenic activity in castrated (ORX) male rats, daily oral gavage for fourteen days; type: in vivo, rat; settings: for Anabolic muscle/prostate ratio: castrated rats
Procedure: Male Sprague-Dawley rats weighing approximately 200 g were purchased from Harlan Bioproducts for Science (Indianapolis, Ind.).
as §1, with “The animals were housed in groups of 2 to 3 animals per cage.” left out, “study.” for “study. Treatment with compound of formula S-II began nine days post ORX and was administered daily via oral gavage for fourteen days.”
as §2, with “In” for “The animals were sacrificed under anesthesia (ketamine/xyalzine, 87:13 mg/kg) and body weights were recorded. In”
as §3, with “The animals were housed in groups of 2 to 3 animals per cage.” left out
Male Sprague-Dawley rats weighing approximately 200 g were purchased from Harlan Bioproducts for Science (Indianapolis, Ind.). […] Regenerative effects of the compound of formula S-XXIV in chronically (9 days) ORX rats was similarly evaluated.
as §3, with “The animals were housed in groups of 2 to 3 animals per cage.” left out, “S-XXIV” for “S-XXIII”
Male Sprague-Dawley rats weighing approximately 200 g were purchased from Harlan Bioproducts for Science (Indianapolis, Ind.). […] Anabolic and androgenic activity of compound of formula S-XXV in intact animals was evaluated, and the dose response in acutely orchidectomized (ORX) animals was evaluated as well.
The compound was weighed and dissolved in 10% DMSO (Fisher) diluted with PEG 300 (Acros Organics, N.J.) for preparation of the appropriate dosage concentrations.

[3] = ORX rats, nonlinear regression, sigmoid Emax model

**Q.** For C[C@](O)(COc1ccc(C#N)cc1)C(=O)Nc1ccc(C#N)c(Cl)c1 [S-XXIV, (S)—N-(3-chloro-4-cyanophenyl)-3-(4-cyanophenoxy)-2-hydroxy-2-methylpropanamide], which “Levator ani muscle weight” value ([1]; 0.01 mg/day oral) is on record?
**A.** 107%±5%

**Q.** And the Prostate weight ([1]; 0.01 mg/day oral)?
**A.** 103%±10%

**Q.** And the “Levator ani muscle weight” value ([1]; 0.03 mg/day oral)?
**A.** 103%±7%

**Q.** And the Prostate weight ([1]; 0.03 mg/day oral)?
**A.** 99%±10%

**Q.** And the “Levator ani muscle weight” value ([1]; 0.1 mg/day oral)?
**A.** 97%±7%

**Q.** And the Prostate weight ([1]; 0.1 mg/day oral)?
**A.** 58%±10%

**Q.** What about the “Levator ani muscle weight” value ([1]; 0.3 mg/day oral) of the same compound?
**A.** 103%±5%

**Q.** What about the Prostate weight ([1]; 0.3 mg/day oral) of the same compound?
**A.** 58%±15%

**Q.** What about the “Levator ani muscle weight” value ([1]; 0.75 mg/day oral) of the same compound?
**A.** 118%±7%

**Q.** What about the Prostate weight ([1]; 0.75 mg/day oral) of the same compound?
**A.** 65%±20%

**Q.** And the “Levator ani muscle weight” value ([1]; 1 mg/day oral)?
**A.** 118%±7%

**Q.** And the Prostate weight ([1]; 1 mg/day oral)?
**A.** 77%±23%

**Q.** And the “Dose restoring 100% of levator ani muscle weight” value ([2]; ORX rats)?
**A.** 0.1 mg/day

**Q.** And the “Prostate weight restored at the dose restoring 100% levator ani” value ([2]; ORX rats)?
**A.** 43±15%

**Q.** What about the “Levator ani muscle weight” value ([2]; ORX rats, 0.01 mg/day oral) of the same compound?
**A.** 52%±8%

**Q.** And the Prostate weight ([2]; ORX rats, 0.01 mg/day oral)?
**A.** 17%±6%

**Q.** And the Seminal vesicle weight ([2]; ORX rats, 0.01 mg/day oral)?
**A.** 10%±3%

**Q.** What about the “Levator ani muscle weight” value ([2]; ORX rats, 0.03 mg/day oral) of the same compound?
**A.** 67%±9%

**Q.** What about the Prostate weight ([2]; ORX rats, 0.03 mg/day oral) of the same compound?
**A.** 31%±3%

**Q.** And the Seminal vesicle weight ([2]; ORX rats, 0.03 mg/day oral)?
**A.** 13%±4%

**Q.** And the “Levator ani muscle weight” value ([2]; ORX rats, 0.1 mg/day oral)?
**A.** 98%±10%

**Q.** What about the Prostate weight ([2]; ORX rats, 0.1 mg/day oral) of the same compound?
**A.** 43%±15%

**Q.** And the Seminal vesicle weight ([2]; ORX rats, 0.1 mg/day oral)?
**A.** 21%±6%

**Q.** What about the “Levator ani muscle weight” value ([2]; ORX rats, 0.3 mg/day oral) of the same compound?
**A.** 103%±12%

**Q.** And the Prostate weight ([2]; ORX rats, 0.3 mg/day oral)?
**A.** 54%±17%

**Q.** And the Seminal vesicle weight ([2]; ORX rats, 0.3 mg/day oral)?
**A.** 43%±8%

**Q.** And the “Levator ani muscle weight” value ([2]; ORX rats, 0.75 mg/day oral)?
**A.** 105%±12%

**Q.** What about the Prostate weight ([2]; ORX rats, 0.75 mg/day oral) of the same compound?
**A.** 58%±10%

**Q.** What about the Seminal vesicle weight ([2]; ORX rats, 0.75 mg/day oral) of the same compound?
**A.** 51%±9%

**Q.** What about the Seminal vesicle weight ([2]; ORX rats, 1 mg/day oral) of the same compound?
**A.** 69%±14%

**Q.** And the Anabolic muscle/prostate ratio ([2]; 0.01 mg/day)?
**A.** 3.02

**Q.** What about the Anabolic muscle/prostate ratio ([2]; 0.03 mg/day) of the same compound?
**A.** 2.13

**Q.** And the Anabolic muscle/prostate ratio ([2]; 0.1 mg/day)?
**A.** 2.27

**Q.** What about the Anabolic muscle/prostate ratio ([2]; 0.3 mg/day) of the same compound?
**A.** 1.90

**Q.** And the Anabolic muscle/prostate ratio ([2]; 0.75 mg/day)?
**A.** 1.83

**Q.** And the Anabolic muscle/prostate ratio ([2]; 1 mg/day)?
**A.** 1.51

**Q.** With C[C@](O)(COc1ccc(C#N)cc1)C(=O)Nc1ccc(C#N)c(C(F)(F)F)c1 [S-XXV] as the compound, how does the “Levator ani muscle weight” value ([1]; 0.01 mg/day oral) read?
**A.** 120%±12%

**Q.** What about the Prostate weight ([1]; 0.01 mg/day oral) of the same compound?
**A.** 111%±21%

**Q.** And the Seminal vesicle weight ([1]; 0.01 mg/day oral)?
**A.** 94%±9%

**Q.** What about the “Levator ani muscle weight” value ([1]; 0.03 mg/day oral) of the same compound?
**A.** 116%±7%

**Q.** What about the Prostate weight ([1]; 0.03 mg/day oral) of the same compound?
**A.** 88%±15%

**Q.** What about the Seminal vesicle weight ([1]; 0.03 mg/day oral) of the same compound?
**A.** 77%±11%

**Q.** What about the “Levator ani muscle weight” value ([1]; 0.1 mg/day oral) of the same compound?
**A.** 128%±7%

**Q.** What about the Prostate weight ([1]; 0.1 mg/day oral) of the same compound?
**A.** 77%±17%

**Q.** And the Seminal vesicle weight ([1]; 0.1 mg/day oral)?
**A.** 80%±9%

**Q.** What about the “Levator ani muscle weight” value ([1]; 0.3 mg/day oral) of the same compound?
**A.** 134%±7%

**Q.** And the Prostate weight ([1]; 0.3 mg/day oral)?
**A.** 71%±16%

**Q.** And the Seminal vesicle weight ([1]; 0.3 mg/day oral)?
**A.** 73%±12%

**Q.** What about the “Levator ani muscle weight” value ([1]; 0.75 mg/day oral) of the same compound?
**A.** 125%±9%

**Q.** What about the Prostate weight ([1]; 0.75 mg/day oral) of the same compound?
**A.** 71%±10%

**Q.** And the Seminal vesicle weight ([1]; 0.75 mg/day oral)?
**A.** 77%±10%

**Q.** What about the “Levator ani muscle weight” value ([1]; 1 mg/day oral) of the same compound?
**A.** 146%±17%

**Q.** And the Prostate weight ([1]; 1 mg/day oral)?
**A.** 87%±13%

**Q.** And the Seminal vesicle weight ([1]; 1 mg/day oral)?
**A.** 88%±14%

**Q.** And the “Dose able to fully restore/maintain levator ani muscle weight” value ([2]; ORX rats)?
**A.** > 0.1 mg/day

**Q.** And the ED50 levator ani ([2]; ORX rats)?
**A.** 0.02 ± 0.01 mg/day

**Q.** What about the ED50 prostate ([2]; ORX rats) of the same compound?
**A.** 0.09 ± 0.07 mg/day

**Q.** And the ED50 seminal vesicles ([2]; ORX rats)?
**A.** 0.17 ± 0.05 mg/day

**Q.** And the “Levator ani muscle weight” value ([2]; ORX rats, 0.01 mg/day oral)?
**A.** 59%±6%

**Q.** And the Prostate weight ([2]; ORX rats, 0.01 mg/day oral)?
**A.** 8%±2%

**Q.** And the Seminal vesicle weight ([2]; ORX rats, 0.01 mg/day oral)?
**A.** 12%±4%

**Q.** What about the “Levator ani muscle weight” value ([2]; ORX rats, 0.03 mg/day oral) of the same compound?
**A.** 85%±9%

**Q.** And the Prostate weight ([2]; ORX rats, 0.03 mg/day oral)?
**A.** 20%±5%

**Q.** And the Seminal vesicle weight ([2]; ORX rats, 0.03 mg/day oral)?
**A.** 17%±5%

**Q.** What about the “Levator ani muscle weight” value ([2]; ORX rats, 0.1 mg/day oral) of the same compound?
**A.** 112%±10%

**Q.** What about the Prostate weight ([2]; ORX rats, 0.1 mg/day oral) of the same compound?
**A.** 51%±19%

**Q.** What about the Seminal vesicle weight ([2]; ORX rats, 0.1 mg/day oral) of the same compound?
**A.** 35%±10%

**Q.** And the “Levator ani muscle weight” value ([2]; ORX rats, 0.3 mg/day oral)?
**A.** 122%±16%

**Q.** What about the Prostate weight ([2]; ORX rats, 0.3 mg/day oral) of the same compound?
**A.** 56%±9%

**Q.** What about the Seminal vesicle weight ([2]; ORX rats, 0.3 mg/day oral) of the same compound?
**A.** 61%±15%

**Q.** And the “Levator ani muscle weight” value ([2]; ORX rats, 0.75 mg/day oral)?
**A.** 127±12 % of intact controls

**Q.** And the Prostate weight ([2]; ORX rats, 0.75 mg/day oral)?
**A.** 80%±28%

**Q.** And the Seminal vesicle weight ([2]; ORX rats, 0.75 mg/day oral)?
**A.** 70%±14%

**Q.** And the “Levator ani muscle weight” value ([2]; ORX rats, 1 mg/day oral)?
**A.** 129.66±2 % of intact controls

**Q.** And the Prostate weight ([2]; ORX rats, 1 mg/day oral)?
**A.** 74±12.5 % of intact controls

**Q.** And the Seminal vesicle weight ([2]; ORX rats, 1 mg/day oral)?
**A.** 80%±6%

**Q.** And the Emax levator ani [2, 3]?
**A.** 131%±2%

**Q.** And the Emax prostate [2, 3]?
**A.** 83%±25%

**Q.** And the Emax seminal vesicles [2, 3]?
**A.** 85%±11%

**Q.** For CCC(=O)O[C@H]1CC[C@H]2[C@@H]3CCC4=CC(=O)CC[C@]4(C)[C@H]3CC[C@]12C [Testosterone propionate, reference compound], which “Levator ani muscle weight, maximally stimulated” value ([2]; maximal stimulation, comparator) is on record?
**A.** 104%
